Source: ChEMBL document CHEMBL1140520, “Synthesis and biological evaluation of substituted 6-alkynyl-4-anilinoquinazoline derivatives as potent EGFR inhibitors” (Bioorg Med Chem Lett, 2007)

Molecular target: Epidermal growth factor receptor (Homo sapiens, UniProt P00533)
Sequence (P00533 whole entry): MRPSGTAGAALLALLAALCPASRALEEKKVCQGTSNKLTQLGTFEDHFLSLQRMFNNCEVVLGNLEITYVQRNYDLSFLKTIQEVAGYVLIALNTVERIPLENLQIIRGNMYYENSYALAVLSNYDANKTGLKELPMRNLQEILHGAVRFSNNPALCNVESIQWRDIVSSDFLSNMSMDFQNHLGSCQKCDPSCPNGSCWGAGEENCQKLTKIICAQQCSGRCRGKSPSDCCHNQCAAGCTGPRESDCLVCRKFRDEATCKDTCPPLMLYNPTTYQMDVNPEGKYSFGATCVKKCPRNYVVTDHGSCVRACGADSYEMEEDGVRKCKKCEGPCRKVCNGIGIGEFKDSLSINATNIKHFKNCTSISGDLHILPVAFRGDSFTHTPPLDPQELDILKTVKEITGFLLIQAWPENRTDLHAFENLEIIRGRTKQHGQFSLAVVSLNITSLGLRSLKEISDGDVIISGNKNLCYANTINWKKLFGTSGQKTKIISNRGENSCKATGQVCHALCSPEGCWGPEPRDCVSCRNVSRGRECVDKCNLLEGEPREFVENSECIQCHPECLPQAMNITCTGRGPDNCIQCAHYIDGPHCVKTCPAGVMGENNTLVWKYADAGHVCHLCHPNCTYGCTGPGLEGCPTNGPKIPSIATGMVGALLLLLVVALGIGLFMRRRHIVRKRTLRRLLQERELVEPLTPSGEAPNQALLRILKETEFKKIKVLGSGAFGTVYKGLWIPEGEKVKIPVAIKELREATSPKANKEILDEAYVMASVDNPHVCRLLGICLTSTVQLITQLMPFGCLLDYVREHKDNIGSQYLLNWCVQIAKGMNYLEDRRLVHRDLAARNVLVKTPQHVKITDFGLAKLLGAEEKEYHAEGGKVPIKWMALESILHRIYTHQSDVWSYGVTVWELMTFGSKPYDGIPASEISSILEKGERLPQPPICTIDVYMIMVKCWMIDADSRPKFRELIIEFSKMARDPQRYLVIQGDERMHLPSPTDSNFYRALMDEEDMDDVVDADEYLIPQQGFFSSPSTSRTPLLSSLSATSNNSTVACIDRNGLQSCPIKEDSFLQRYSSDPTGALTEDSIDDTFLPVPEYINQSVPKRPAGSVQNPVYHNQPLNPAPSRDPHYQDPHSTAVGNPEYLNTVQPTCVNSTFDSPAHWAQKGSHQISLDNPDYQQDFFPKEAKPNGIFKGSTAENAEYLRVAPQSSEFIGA

Point of comparison: `OCC#Cc1ccc2ncnc(Nc3ccc(F)c(Cl)c3)c2c1`, IC50 14.1 nM. Against it:
- CC(C)(O)C#Cc1ccc2ncnc(Nc3ccc(F)c(Cl)c3)c2c1 — 11-fold higher, 152 nM
- COc1cc2ncnc(Nc3cccc(C#CCCCO)c3)c2cc1OC — 96-fold higher, 1360 nM
- COc1cc2ncnc(Nc3cccc(C#CC(C)(C)O)c3)c2cc1OC — 15-fold higher, 206 nM
- OCCCC#Cc1ccc2ncnc(Nc3ccc(F)c(Cl)c3)c2c1 — 8.1-fold higher, 114 nM
- COc1cc2ncnc(Nc3cccc(C#CCO)c3)c2cc1OC — 120-fold higher, 1640 nM
- C#Cc1cccc(Nc2ncnc3cc(OC)c(OC)cc23)c1 — 2-fold higher, 28.8 nM
- Fc1ccc(Nc2ncnc3ccc(C#Cc4ccccc4)cc23)cc1Cl — 23-fold higher, 331 nM
- Fc1ccc(Nc2ncnc3ccc(C#CCN4CCOCC4)cc23)cc1Cl — 3.6-fold higher, 50.3 nM
- COc1cc2ncnc(Nc3cccc(C#Cc4ccccc4)c3)c2cc1OC — 65-fold higher, 921 nM
- OCCC#Cc1ccc2ncnc(Nc3ccc(F)c(Cl)c3)c2c1 — 13-fold higher, 186 nM
- COc1cc2ncnc(Nc3cccc(C#CCCO)c3)c2cc1OC — 29-fold higher, 402 nM
- Fc1ccc(Nc2ncnc3ccc(C#CCN4CCCCC4)cc23)cc1Cl — 6.3-fold higher, 88.7 nM
- C#Cc1ccc2ncnc(Nc3ccc(F)c(Cl)c3)c2c1 — 9-fold higher, 127 nM
